Source: patent publication US9688699B2, “3-(pyrimidine-2-yl)imidazo[1,2-a]pyridines” (Bayer Pharma Aktiengesellschaft, priority 2014, dated 2017)
Where a name gives a salt, the structure may show the parent alone.

Tests used:
[1] = molecular target: T1, recombinant guanylate cyclase reporter cell line (Rattus norvegicus, UniProt P19686+P20595); test: Effect on a recombinant guanylate cyclase reporter cell line (B-2); assay type: cell-based; conditions: MEC = minimum effective concentration, in some cases mean values for individual determinations
T1 construct: expressed in transfected cells
T1 sequence (P19686 1-690): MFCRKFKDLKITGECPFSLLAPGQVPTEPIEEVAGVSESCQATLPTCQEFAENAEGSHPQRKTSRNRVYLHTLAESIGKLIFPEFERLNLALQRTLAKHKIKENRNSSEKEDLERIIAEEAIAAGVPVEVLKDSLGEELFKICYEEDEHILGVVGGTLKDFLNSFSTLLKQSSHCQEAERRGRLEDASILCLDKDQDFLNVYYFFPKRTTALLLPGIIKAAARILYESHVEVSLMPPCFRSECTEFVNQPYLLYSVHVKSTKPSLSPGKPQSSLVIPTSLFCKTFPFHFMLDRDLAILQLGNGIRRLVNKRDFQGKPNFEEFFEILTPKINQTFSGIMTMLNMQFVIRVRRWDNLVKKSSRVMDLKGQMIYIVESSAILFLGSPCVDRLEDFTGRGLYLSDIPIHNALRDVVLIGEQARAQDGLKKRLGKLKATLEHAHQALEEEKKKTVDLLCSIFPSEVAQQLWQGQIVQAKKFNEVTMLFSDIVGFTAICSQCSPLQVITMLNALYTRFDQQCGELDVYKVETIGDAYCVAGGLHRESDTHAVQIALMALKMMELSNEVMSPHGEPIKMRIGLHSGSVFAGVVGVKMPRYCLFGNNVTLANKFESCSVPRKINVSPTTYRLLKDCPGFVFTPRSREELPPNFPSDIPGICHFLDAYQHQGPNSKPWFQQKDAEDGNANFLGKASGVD
T1 sequence (P20595 1-619): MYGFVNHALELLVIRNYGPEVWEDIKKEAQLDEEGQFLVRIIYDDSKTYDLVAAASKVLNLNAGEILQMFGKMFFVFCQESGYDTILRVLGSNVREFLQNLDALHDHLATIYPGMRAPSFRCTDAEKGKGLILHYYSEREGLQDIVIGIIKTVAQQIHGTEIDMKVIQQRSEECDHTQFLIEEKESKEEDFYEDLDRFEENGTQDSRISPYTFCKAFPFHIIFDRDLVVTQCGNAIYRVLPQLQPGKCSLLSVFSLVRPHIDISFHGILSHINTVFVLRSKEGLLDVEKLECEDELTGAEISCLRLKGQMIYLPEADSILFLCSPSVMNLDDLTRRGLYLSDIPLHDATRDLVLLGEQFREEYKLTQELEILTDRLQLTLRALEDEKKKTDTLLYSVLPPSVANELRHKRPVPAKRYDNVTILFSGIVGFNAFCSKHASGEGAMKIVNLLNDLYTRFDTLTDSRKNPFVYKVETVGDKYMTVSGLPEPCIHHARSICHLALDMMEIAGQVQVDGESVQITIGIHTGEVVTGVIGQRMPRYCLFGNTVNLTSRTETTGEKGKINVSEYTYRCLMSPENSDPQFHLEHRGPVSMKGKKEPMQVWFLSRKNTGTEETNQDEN
Summary of the method: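 Cellular guanylate cyclase activity measured in a recombinant reporter cell line expressing rat soluble guanylate cyclase subunits. Values are minimum effective concentrations (MEC), some as means of individual determinations.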

[2] = molecular target: T2, human phosphodiesterase 5 (PDE 5) (Homo sapiens, UniProt O76074); test: Inhibition of human phosphodiesterase 5 (PDE 5) (B-3); assay type: biochemical; conditions: PDE 5 preparation from human platelets; [8-3H] cGMP substrate, SPA; in some cases means of individual determinations
T2 construct: PDE 5 preparations are obtained from human platelets by disruption; from tissue; host or cells: human platelets (Mono Q ion exchange fractions with PDE 5 activity)
Summary of the method: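 Enzyme partially purified from human platelets by Mono Q ion exchange; [8-3H]cGMP substrate (0.025 μCi), Tris-HCl pH 7.5 with MgCl2/EDTA, <70% conversion, 60 min at room temperature. Compounds tested at 4 to 0.0018 μM final; yttrium SPA bead read-out, IC50 from concentration–% inhibition plot.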

MEC [1] [µM]	IC50 [2] [nM]	SMILES
0.3	20	Cc1nc2c(OCc3c(F)cccc3F)cccn2c1-c1nc2c(c(N3CCC[C@H]3CO)n1)C(C)(C)C(=O)N2 [Example 36, 2-{8-[(2,6-difluorobenzyl)oxy]-2-methylimidazo[1,2-a]pyridin-3-yl}-4-[(2S)-2-(hydroxymethyl)pyrrolidin-1-yl]-5,5-dimethyl-5,7-dihydro-6H-pyrrolo[2,3-d]pyrimidin-6-one]
1	120	COCC(C)(N)CNc1nc(-c2c(C)nc3c(OCc4c(F)cccc4F)cccn23)nc2c1C(C)(C)C(=O)N2 (single isomer, unassigned; ent-4) [Example 46, ent-4-[(2-Amino-3-methoxy-2-methylpropyl)amino]-2-{8-[(2,6-difluorobenzyl)oxy]-2-methylimidazo[1,2-a]pyridin-3-yl}-5,5-dimethyl-5,7-dihydro-6H-pyrrolo[2,3-d]pyrimidin-6-one (Enantiomer B)]
1	35	COCC(C)(N)CNc1nc(-c2c(C)nc3c(OCc4c(F)ccc(F)c4F)cccn23)nc2c1C(C)(C)C(=O)N2 (racemic) [Example 35, rac-4-[(2-amino-3-methoxy-2-methylpropyl)amino]-5,5-dimethyl-2-{2-methyl-8-[(2,3,6-trifluorobenzyl)oxy]imidazo[1,2-a]pyridin-3-yl}-5,7-dihydro-6H-pyrrolo[2,3-d]pyrimidin-6-one formate]
1	21	Cc1nc2c(OCc3c(F)cccc3F)cccn2c1-c1nc2c(c(N3CCC[C@@H]3CO)n1)C(C)(C)C(=O)N2 [Example 37, 2-{8-[(2,6-difluorobenzyl)oxy]-2-methylimidazo[1,2-a]pyridin-3-yl}-4-[(2R)-2-(hydroxymethyl)pyrrolidin-1-yl]-5,5-dimethyl-5,7-dihydro-6H-pyrrolo[2,3-d]pyrimidin-6-one]
1	790	Cc1cc(OCc2c(F)cccc2F)c2nc(C)c(-c3nnc4c(n3)NC(=O)C4(C)C)n2c1 [Example 69, 3-{8-[(2,6-Difluorobenzyl)oxy]-2,6-dimethylimidazo[1,2-a]pyridin-3-yl}-7,7-dimethyl-5,7-dihydro-6H-pyrrolo[2,3-e][1,2,4]triazin-6-one]
0.3	0.9	Cc1nc2c(OCc3c(F)cccc3F)cccn2c1-c1nc2c(c(NC3CCC(C)(O)CC3)n1)C(C)(C)C(=O)N2 (single isomer, unassigned; diastereomer 2) [Example 29, 2-{8-[(2,6-difluorobenzyl)oxy]-2-methylimidazo[1,2-a]pyridin-3-yl}-4-[(4-hydroxy-4-methylcyclohexyl)amino]-5,5-dimethyl-5,7-dihydro-6H-pyrrolo[2,3-d]pyrimidin-6-one formate (Diastereomer 2)]
3	23	Cc1nc2c(OCc3c(F)cccc3F)cccn2c1-c1nc(NCC(N)C(F)(F)C(F)F)c2c(n1)NC(=O)C2(C)C (racemic) [Example 27, rac-4-[(2-amino-3,3,4,4-tetrafluorobutyl)amino]-2-{8-[(2,6-difluorobenzyl)oxy]-2-methylimidazo[1,2-a]pyridin-3-yl}-5,5-dimethyl-5,7-dihydro-6H-pyrrolo[2,3-d]pyrimidin-6-one]
1	48	Cc1nc2c(OCc3c(F)cccc3F)cccn2c1-c1nc(CN)c2c(n1)NC(=O)C2(C)C [Example 49, 4-(Aminomethyl)-2-{8-[(2,6-difluorobenzyl)oxy]-2-methylimidazo[1,2-a]pyridin-3-yl}-5,5-dimethyl-5,7-dihydro-6H-pyrrolo[2,3-d]pyrimidin-6-one]
0.03	47	Cc1nc2c(OCc3c(F)cccc3F)cc(Cl)cn2c1-c1nc(N)c2c(n1)NC(=O)C2(C)C [Example 67, 4-Amino-2-{6-chloro-8-[(2,6-difluorobenzyl)oxy]-2-methylimidazo[1,2-a]pyridin-3-yl}-5,5-dimethyl-5,7-dihydro-6H-pyrrolo[2,3-d]pyrimidin-6-one]

Second part, the molecule before the results:

SMILES	MEC [1] [µM]	IC50 [2] [nM]
Cc1nc2c(OCc3c(F)cccc3F)cccn2c1-c1nc(Cl)c2c(n1)NC(=O)C2(C)C [Example 4, 4-Chloro-2-{8-[(2,6-difluorobenzyl)oxy]-2-methylimidazo[1,2-a]pyridin-3-yl}-5,5-dimethyl-5,7-dihydro-6H-pyrrolo[2,3-d]pyrimidin-6-one]	3	110
Cc1nc2c(OCc3c(F)cccc3F)cccn2c1-c1nc(N)c2c(n1)NC(=O)C2(C)C [Example 1, 4-Amino-2-{8-[(2,6-difluorobenzyl)oxy]-2-methylimidazo[1,2-a]pyridin-3-yl}-5,5-dimethyl-5,7-dihydro-6H-pyrrolo[2,3-d]pyrimidin-6-one]	0.3	34
Cc1nc2c(OCc3c(F)cccc3F)cccn2c1-c1nc(NCCN2CCC(F)(F)C2)c2c(n1)NC(=O)C2(C)C [Example 26, 2-{8-[(2,6-difluorobenzyl)oxy]-2-methylimidazo[1,2-a]pyridin-3-yl}-4-{[2-(3,3-difluoropyrrolidin-1-yl)ethyl]amino)-5,5-dimethyl-5,7-dihydro-6H-pyrrolo[2,3-d]pyrimidin-6-one]	3	26
Cc1nc2c(OCc3c(F)cccc3F)cccn2c1-c1nc(NC[C@H](O)CO)c2c(n1)NC(=O)C2(C)C [Example 22, 2-{8-[(2,6-difluorobenzyl)oxy]-2-methylimidazo[1,2-a]pyridin-3-yl}-4-{[(2S)-2,3-dihydroxypropyl]amino}-5,5-dimethyl-5,7-dihydro-6H-pyrrolo[2,3-d]pyrimidin-6-one]	3	3.9
Cc1nc2c(OCc3c(F)cccc3F)cccn2c1-c1nc(NCCO)c2c(n1)NC(=O)C2(C)C [Example 24, 2-{8-[(2,6-difluorobenzyl)oxy]-2-methylimidazo[1,2-a]pyridin-3-yl}-4-[(2-hydroxyethyl)amino]-5,5-dimethyl-5,7-dihydro-6H-pyrrolo[2,3-d]pyrimidin-6-one trifluoroacetate]	0.3	1.3
Cc1nc2c(OCc3c(F)cccc3F)cccn2c1-c1nc(NCC(N)c2ccc(F)c(F)c2)c2c(n1)NC(=O)C2(C)C (single isomer, unassigned; ent-4) [Example 14, ent-4-{[2-Amino-2-(3,4-difluorophenyl)ethyl]amino}-2-{8-[(2,6-difluorobenzyl)oxy]-2-methylimidazo[1,2-a]pyridin-3-yl}-5,5-dimethyl-5,7-dihydro-6H-pyrrolo[2,3-d]pyrimidin-6-one]	3	91
Cc1nc2c(OCc3c(F)ccc(F)c3F)cccn2c1-c1nc(N)c2c(n1)NC(=O)C2(C)C [Example 9, 4-Amino-5,5-dimethyl-2-{2-methyl-8-[(2,3,6-trifluorobenzyl)oxy]imidazo[1,2-a]pyridin-3-yl}-5,7-dihydro-6H-pyrrolo[2,3-d]pyrimidin-6-one]	1	17
Cc1nc2c(OCc3c(F)ccc(F)c3F)cccn2c1-c1nc(O)c2c(n1)NC(=O)C2(C)C [Example 11, 4-Hydroxy-5,5-dimethyl-2-{2-methyl-8-[(2,3,6-trifluorobenzyl)oxy]imidazo[1,2-a]pyridin-3-yl}-5,7-dihydro-6H-pyrrolo[2,3-d]pyrimidin-6-one]	3	260
